What all share (assay type): physicochemical
Series [1] in a line: Concentration of astaxanthin in the aqueous supernatant after glass-bead wall breaking of P. rhodozyma (spectrophotometer). Particulars: water, 1 mm glass beads 500 g/L, 22° C., 150 rpm. On the procedure:
Adding P. rhodozyma to 20 mL of water to obtain yeast suspensions with concentrations of 20 g/L, 50 g/L and 100 g/L (dry weight), adding glass beads with a particle size of 1 mm to the yeast suspensions to make the content of the glass beads in the yeast suspensions 500 g/L, and then shaking to break walls in a shaker at 22° C. at a stirring speed of 150 rpm for 48 h. After breaking the wall, centrifuging at 10000 rpm for 10 min, and then collecting the precipitate and supernatant. Extracting astaxanthin in the supernatant with acetone and back-extracting it with petroleum ether, extracting the astaxanthin in the precipitate with acetone, and then using a spectrophotometer to detect the content of astaxanthin in the supernatant and precipitate. Using the amount of astaxanthin extracted by the acid-heat treatment method as a control, i.e., regarding the amount of astaxanthin extracted by the acid-heat treatment method by default as the total amount of astaxanthin for the calculation of the astaxanthin extraction rate.
Adding P. rhodozyma to 20 mL of water to obtain a yeast suspension with a concentration of 20 g/L (dry weight), adding glass beads with a particle size of 1 mm to the yeast suspension to make the content of the glass beads in the yeast suspension 500 g/L, and then shaking to break walls in a shaker at 22° C. at a stirring speed of 150 rpm for 6 h, 24 h and 48 h, respectively. After breaking the wall, centrifuging at 10000 rpm for 10 min, and then collecting the precipitate and supernatant. Extracting astaxanthin in the supernatant with acetone and back-extracting it with petroleum ether, extracting the astaxanthin in the precipitate with acetone, and then using a spectrophotometer to detect the content of astaxanthin in the supernatant and precipitate. Using the amount of astaxanthin extracted by the acid-heat treatment method as a control, i.e., regarding the amount of astaxanthin extracted by the acid-heat treatment method by default as the total amount of astaxanthin for the calculation of the astaxanthin extraction rate.

Series [2] in a line: Encapsulation rate of the microcapsule powder (total pigment vs pigment on the surface). Particulars: Example 4 microcapsules. On the procedure: (§1) This example selected the following optimal proportion: Supernatant (V, mL):gelatin (W, g):porous starch (W, g)=400:15:6 (core material (W, g):wall material (W, g)=3.95:21); the microencapsulation temperature was 40° C., and the microencapsulation time was 2 h. The encapsulation rate was calculated by detecting the total amount of pigment in the microcapsule powder and the amount of pigment on the surface (refer to Gomez-Estaca J. Food Hydrocolloids, 2016, 61:155-162). The amount of pigment on the surface was obtained by directly adding acetone for extraction. The total amount of pigment in the microcapsule powder was obtained as follows: dissolving the microcapsule powder in distilled water, shaking and then adding acetone thereto, mixing uniformly and then centrifuging, using petroleum ether to back-extract the pigment, and taking the upper layer of pigment-petroleum ether to measure the absorbance A with a spectrophotometer; if the pigment in the lower layer of acetone was not extracted completely, petroleum ether was added repeatedly until the organic solvent in the lower layer was colorless. Drug-loading rate refers to the amount of pigment contained in each gram of the microcapsule powder.

Series [3] can be described thus: Drug-loading rate (amount of pigment contained in each gram of the microcapsule powder). The note with it: Example 4 microcapsules. On the procedure:
as §1

Structures are written as SMILES.

For `CC1=C(/C=C/C(C)=C/C=C/C(C)=C/C=C/C=C(C)/C=C/C=C(C)/C=C/C2=C(C)C(=O)[C@@H](O)CC2(C)C)C(C)(C)C[C@H](O)C1=O` [astaxanthin], the “concentration of astaxanthin in the supernatant after the wall breaking” value was 93.72 µg/mL in series [1] (P. rhodozyma 20 g/L, 6 h); 306.43 µg/mL in series [1] (P. rhodozyma 20 g/L, 24 h); 459.57 µg/mL in series [1] (P. rhodozyma 20 g/L, 48 h); 843.06 µg/mL in series [1] (P. rhodozyma 50 g/L, 48 h); 1043.17 µg/mL in series [1] (P. rhodozyma 100 g/L, 48 h). Also, the figures for the “encapsulation rate of astaxanthin” value in series [2] (concentration of yeast 20 g/L), in series [2] (concentration of yeast 50 g/L) and in series [2] (concentration of yeast 100 g/L) were 87.8%, 78.69% and 75.62%, respectively. Moreover, the “drug-loading rate of astaxanthin” value in series [3] (concentration of yeast 20 g/L) was 3.45 mg/g; in series [3] (concentration of yeast 50 g/L), 6.79 mg/g; in series [3] (concentration of yeast 100 g/L), 10.42 mg/g.

For the origin of these results see patent US12048317B2, “Astaxanthin-containing condiment and a preparation method therefor” (South China University of Technology, priority 2018, dated 2024).
